Among the data in PubChem BioAssay AID256 (DTP/NCI, 2004) are T/C values, retold here.

The structures appear in SMILES notation. “And” between values parts separate entries of the source, which are not always exact repeats. Equal values may be shown once. Toxic doses and inconclusive results are not listed.

This experiment relates to CD2F1 mice, L1210 leukemia ip, survival T/C. As to the kind of experiment: NCI In Vivo Anticancer Drug Screen. Data for tumor model L1210 Leukemia (intraperitoneal) in CD2F1 (CDF1) mice. The conditions noted are these: higher = longer survival. In a few lines:
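Ratio T/C, where T is the treated-group value and C the vehicle-dosed control value, from mice implanted with a transplantable tumor.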

Setting [1] is: endpoint: mean survival time, dose: 12.5 mg/kg/injection, schedule: Q01DX009 (ip), vehicle: saline with Tween-80.
Setting [2] is: endpoint: mean survival time, dose: 25.0 mg/kg/injection, schedule: Q01DX009 (ip), vehicle: saline with Tween-80.
Where [3] appears, read: endpoint: mean survival time, dose: 25.0 mg/kg/injection, schedule: Q04DX003 (ip), vehicle: saline with Tween-80.
[4] abbreviates: endpoint: mean survival time, dose: 50.0 mg/kg/injection, schedule: Q01DX009 (ip), vehicle: saline with Tween-80.
The mark [5] stands for this setting: endpoint: mean survival time, dose: 50.0 mg/kg/injection, schedule: Q04DX003 (ip), vehicle: saline with Tween-80.
[6] abbreviates: endpoint: mean survival time, dose: 100.0 mg/kg/injection, schedule: Q04DX003 (ip), vehicle: saline.
The mark [7] stands for this setting: endpoint: mean survival time, dose: 100.0 mg/kg/injection, schedule: Q04DX003 (ip), vehicle: saline with Tween-80.
[8] abbreviates: endpoint: mean survival time, dose: 200.0 mg/kg/injection, schedule: Q04DX003 (ip), vehicle: saline with Tween-80.
Where [9] appears, read: endpoint: mean survival time, dose: 400.0 mg/kg/injection, schedule: Q04DX003 (ip), vehicle: saline with Tween-80.

Consider `O=C(C1CC1)N1CCC(O)(c2ccccc2)CC1`, for which the T/C (endpoint: mean survival time, dose: 100.0 mg/kg/injection, schedule: Q04DX002 (ip), vehicle: saline with Tween-80) is 97 % of control; the T/C (endpoint: mean survival time, dose: 200.0 mg/kg/injection, schedule: Q04DX002 (ip), vehicle: saline with Tween-80) was 93 % of control; the T/C (endpoint: mean survival time, dose: 400.0 mg/kg/injection, schedule: Q04DX002 (ip), vehicle: saline with Tween-80) was 93 % of control.
As to `CC1/C=C/C=C/CC/C=C/C=C/C=C/C=C/C(OC2OC(C)C(O)C(N)C2O)CC2OC(CC(O)C(O)CCC(O)CC(O)CC(O)CC(=O)OC(C)C(C)C1O)CC(O)C2C(=O)O` (stereo not given), the T/C (endpoint: mean survival time, dose: 9.5 mg/kg/injection, schedule: Q01DX009 (ip), vehicle: saline sonified) was 95 % of control; the T/C (endpoint: mean survival time, dose: 9.5 mg/kg/injection, schedule: Q04DX003 (ip), vehicle: saline sonified) is 98 % of control; the T/C (endpoint: mean survival time, dose: 19.0 mg/kg/injection, schedule: Q01DX009 (ip), vehicle: saline sonified) was 93 % of control; the T/C (endpoint: mean survival time, dose: 19.0 mg/kg/injection, schedule: Q04DX003 (ip), vehicle: saline sonified) is 92 % of control; the T/C (endpoint: mean survival time, dose: 38.0 mg/kg/injection, schedule: Q01DX009 (ip), vehicle: saline sonified) was 87 % of control; the T/C (endpoint: mean survival time, dose: 38.0 mg/kg/injection, schedule: Q04DX003 (ip), vehicle: saline sonified) is 100 % of control. Also, the T/C is, setting by setting: (endpoint: median survival time, dose: 6.25 mg/kg/injection, schedule: Q01DX009 (ip), vehicle: saline with Tween-80) 100 % of control; (endpoint: median survival time, dose: 12.5 mg/kg/injection, schedule: Q01DX009 (ip), vehicle: saline with Tween-80) 100 % of control; (endpoint: median survival time, dose: 25.0 mg/kg/injection, schedule: Q01DX009 (ip), vehicle: saline with Tween-80) 102 % of control; (endpoint: median survival time, dose: 50.0 mg/kg/injection, schedule: Q01DX009 (ip), vehicle: saline with Tween-80) 101 % of control; (endpoint: median survival time, dose: 100.0 mg/kg/injection, schedule: Q01DX009 (ip), vehicle: saline with Tween-80) 100 % of control.
As to `Cc1ccc(Nc2nc(N)nc3nc(N)c(C(N)=O)nc23)cc1C`, the T/C (endpoint: mean survival time, dose: 12.5 mg/kg/injection, schedule: Q04DX002 (ip), vehicle: Klucel (hydroxypropylcellulose) (HPC)) is 91 % of control; the T/C (endpoint: mean survival time, dose: 25.0 mg/kg/injection, schedule: Q04DX002 (ip), vehicle: Klucel (hydroxypropylcellulose) (HPC)) was 86 % of control; the T/C (endpoint: mean survival time, dose: 50.0 mg/kg/injection, schedule: Q04DX002 (ip), vehicle: Klucel (hydroxypropylcellulose) (HPC)) was 91 % of control.
For the compound `COCC(=O)C(C(C)=O)C(c1ccccn1)C(C(C)=O)C(=O)COC` (stereo not given), the T/C (endpoint: mean survival time, dose: 12.5 mg/kg/injection, schedule: Q04DX002 (ip), vehicle: saline with Tween-80) was 96 % of control; the T/C (endpoint: mean survival time, dose: 25.0 mg/kg/injection, schedule: Q04DX002 (ip), vehicle: saline with Tween-80) was 96 % of control; the T/C (endpoint: mean survival time, dose: 50.0 mg/kg/injection, schedule: Q04DX002 (ip), vehicle: saline with Tween-80) was 104 % of control.
In the case of `CC(=O)c1ccco1`, the T/C was 96 % of control under setting [1]; 95 % of control under setting [2]; 104 % of control under setting [3]; 98 % of control under setting [4]; 122 % of control under setting [5].
Regarding `COC12C(COC(=O)NCCO)C3=C(C(=O)C(C)=C(N)C3=O)N1CC1NC12` (stereo not given), the T/C (endpoint: mean survival time, dose: 1.56 mg/kg/injection, schedule: Q01DX009 (ip), vehicle: Klucel (hydroxypropylcellulose) (HPC)) was 112 % of control; the T/C (endpoint: mean survival time, dose: 3.12 mg/kg/injection, schedule: Q01DX009 (ip), vehicle: Klucel (hydroxypropylcellulose) (HPC)) is 114 % of control and 106 % of control; the T/C (endpoint: mean survival time, dose: 6.25 mg/kg/injection, schedule: Q01DX009 (ip), vehicle: Klucel (hydroxypropylcellulose) (HPC)) was 115 % of control and 120 % of control; the T/C (endpoint: mean survival time, dose: 12.5 mg/kg/injection, schedule: Q01DX009 (ip), vehicle: Klucel (hydroxypropylcellulose) (HPC)) is 115 % of control; the T/C (endpoint: mean survival time, dose: 50.0 mg/kg/injection, schedule: Q01DX009 (ip), vehicle: Klucel (hydroxypropylcellulose) (HPC)) is 114 % of control; the T/C (endpoint: mean survival time, dose: 222.0 mg/kg/injection, schedule: Q01DX001 (ip), vehicle: carboxymethylcellulose (CMC)) is 89 % of control.
Turning to `CCC1=[N+](C)c2ccccc2C1(C)C`, under setting [6], the T/C was 104 % of control.
For the compound `COC(=O)C1(C)CCCC2(C)C1CCC13OC1C1(C(C)C)OC1CC23` (stereo not given), the T/C runs as follows: (endpoint: mean survival time, dose: 100.0 mg/kg/injection, schedule: Q01DX009 (ip), vehicle: saline with Tween-80) 98 % of control; (endpoint: mean survival time, dose: 200.0 mg/kg/injection, schedule: Q01DX009 (ip), vehicle: saline with Tween-80) 104 % of control; (endpoint: mean survival time, dose: 400.0 mg/kg/injection, schedule: Q01DX009 (ip), vehicle: saline with Tween-80) 98 % of control.
`CC(=O)C(C(C)=O)C(c1ccccn1)C(C(C)=O)C(C)=O`: the T/C reads like this: under setting [7], 106 % of control; under setting [8], 98 % of control; under setting [9], 93 % of control.
For `Cc1cc(Br)ccc1N` the same measures were 97 % of control, 96 % of control and 97 % of control.
With `COC1=CC(=O)C(OC)=C(OC)C1=O`, the T/C (endpoint: mean survival time, dose: 3.12 mg/kg/injection, schedule: Q01DX009 (ip), vehicle: saline with Tween-80) was 94 % of control; the T/C (endpoint: mean survival time, dose: 6.25 mg/kg/injection, schedule: Q01DX009 (ip), vehicle: saline with Tween-80) is 97 % of control; the T/C under setting [1] was 97 % of control; the T/C under setting [2] is 100 % of control; the T/C under setting [4] was 105 % of control.
As to `CCCN1CCc2cc3c(cc2C1)OCO3`, the T/C (endpoint: mean survival time, dose: 100.0 mg/kg/injection, schedule: Q01DX001 (ip), vehicle: saline) is 100 % of control.
For the compound `O=C(COc1ccccc1)NC(=S)Nc1ccc(Cl)cc1Cl`, the T/C is, setting by setting: under setting [2], 100 % of control; under setting [4], 100 % of control.
Regarding `COC(=O)C(c1ccccc1)C(SCc1ccccc1)c1ccccc1` (stereo not given), the T/C under setting [7] is 103 % of control, the T/C under setting [8] is 95 % of control and the T/C under setting [9] was 98 % of control.
`[Cl][Pt+2][Cl].[NH-]C(C(=O)O)C([NH-])C(=O)O` (stereo not given): the T/C runs as follows: (endpoint: mean survival time, dose: 50.0 mg/kg/injection, schedule: Q04DX003 (ip), vehicle: saline) 100 % of control; under setting [6], 106 % of control; (endpoint: mean survival time, dose: 200.0 mg/kg/injection, schedule: Q04DX003 (ip), vehicle: saline) 104 % of control.
For `CCCN(N=O)C(=O)Nc1ccc(C2CC(=O)N(C)C2=O)cc1` (stereo not given), the T/C is, setting by setting: (endpoint: mean survival time, dose: 12.5 mg/kg/injection, schedule: Q01DX001 (ip), vehicle: distilled water + Tween-80) 112 % of control; (endpoint: mean survival time, dose: 25.0 mg/kg/injection, schedule: Q01DX001 (ip), vehicle: distilled water + Tween-80) 111 % of control; (endpoint: mean survival time, dose: 50.0 mg/kg/injection, schedule: Q01DX001 (ip), vehicle: distilled water + Tween-80) 109 % of control; (endpoint: mean survival time, dose: 100.0 mg/kg/injection, schedule: Q01DX001 (ip), vehicle: distilled water + Tween-80) 101 % of control; (endpoint: mean survival time, dose: 200.0 mg/kg/injection, schedule: Q01DX001 (ip), vehicle: distilled water + Tween-80) 107 % of control.
On to `CC1(C)C2CCC(I)(C2)C1O` (stereo not given), for which the T/C is 101 % of control under setting [5], 101 % of control under setting [7] and 101 % of control under setting [8].
On to `[Cl][Pt+2][Cl].[NH-]CC1CCCCC1[NH-]` (stereo not given), for which the T/C (endpoint: mean survival time, dose: 3.12 mg/kg/injection, schedule: Q04DX003 (ip), vehicle: saline with Tween-80) was 222 % of control; the T/C (endpoint: mean survival time, dose: 6.25 mg/kg/injection, schedule: Q04DX003 (ip), vehicle: saline with Tween-80) is 319 % of control and 175 % of control; the T/C (endpoint: mean survival time, dose: 12.5 mg/kg/injection, schedule: Q04DX003 (ip), vehicle: saline with Tween-80) was 348 % of control and 270 % of control; the T/C under setting [3] is 309 % of control.
As to `O=C(COc1ccc(Cl)c(Cl)c1)Nc1cccc(C(=O)CCl)c1`, the T/C is, setting by setting: under setting [7], 95 % of control; under setting [8], 101 % of control; under setting [9], 103 % of control.
